Measurements reported in US20250215029A1 (Recludix Pharma, Inc., priority 2022, published 2025).
pIC50: −log10 of the molar value. Read-outs that look alike come from different tables or passages of the source.

Columns and labels:
[1] = target: T1, Recombinant STAT3 protein (STAT3 (G127-I722)) (Homo sapiens, UniProt P40763); assay: STAT3 Fluorescence Polarization (FP) Assay; assay type: binding; settings: probe 5-FAM-GpYLPQTV-NH2 2 nM, 45-minute incubation
T1 construct: Recombinant STAT3 protein (STAT3 (G127-I722))
T1 sequence (P40763 127-722): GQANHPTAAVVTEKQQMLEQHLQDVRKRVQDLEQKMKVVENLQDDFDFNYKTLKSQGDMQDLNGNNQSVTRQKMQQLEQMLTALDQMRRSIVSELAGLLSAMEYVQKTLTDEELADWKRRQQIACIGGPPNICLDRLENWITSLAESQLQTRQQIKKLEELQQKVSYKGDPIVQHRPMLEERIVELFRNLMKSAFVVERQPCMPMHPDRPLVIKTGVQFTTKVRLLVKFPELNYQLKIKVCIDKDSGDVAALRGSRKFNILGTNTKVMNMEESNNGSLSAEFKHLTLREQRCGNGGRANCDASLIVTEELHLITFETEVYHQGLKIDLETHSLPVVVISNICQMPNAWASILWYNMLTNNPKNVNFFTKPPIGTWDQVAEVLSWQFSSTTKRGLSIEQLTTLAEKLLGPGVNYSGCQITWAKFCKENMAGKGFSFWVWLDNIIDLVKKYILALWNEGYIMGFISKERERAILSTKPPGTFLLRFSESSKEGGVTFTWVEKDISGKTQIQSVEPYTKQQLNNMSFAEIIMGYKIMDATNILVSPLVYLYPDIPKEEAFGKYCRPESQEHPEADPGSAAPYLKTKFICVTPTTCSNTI
Summary of the method: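 Displacement of a 2 nM 5-FAM-labelled pY peptide (GpYLPQTV) from 25 nM recombinant STAT3 (G127-I722) was monitored by fluorescence polarization. Incubation lasted 45 min at room temperature in pH 7.4 HEPES buffer containing 1% DMSO.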

[2] = target: T2, Recombinant STAT6 protein (STAT6 (W123-T658)) (Homo sapiens, UniProt P42226); assay: STAT6 Fluorescence Polarization (FP) Assay; assay type: binding; settings: probe 5-FAM-Ap[…]-NH2 2 nM, 45-minute incubation
T2 construct: Recombinant STAT6 protein (STAT6 (W123-T658))
T2 sequence (P42226 123-658): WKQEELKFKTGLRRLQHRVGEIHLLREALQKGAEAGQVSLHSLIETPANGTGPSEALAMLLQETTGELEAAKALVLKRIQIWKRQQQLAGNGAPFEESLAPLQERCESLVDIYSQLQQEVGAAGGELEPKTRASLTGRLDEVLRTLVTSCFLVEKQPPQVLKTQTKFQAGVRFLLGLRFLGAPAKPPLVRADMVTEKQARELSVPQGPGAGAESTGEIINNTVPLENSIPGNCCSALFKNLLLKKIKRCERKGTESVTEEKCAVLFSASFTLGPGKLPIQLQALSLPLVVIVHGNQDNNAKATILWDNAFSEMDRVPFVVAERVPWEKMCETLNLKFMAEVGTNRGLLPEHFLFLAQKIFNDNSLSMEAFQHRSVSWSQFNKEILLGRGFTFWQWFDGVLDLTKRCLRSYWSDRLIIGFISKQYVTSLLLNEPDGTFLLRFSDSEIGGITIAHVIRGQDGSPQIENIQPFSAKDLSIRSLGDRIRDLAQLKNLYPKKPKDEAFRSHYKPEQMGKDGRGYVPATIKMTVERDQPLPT
Summary of the method: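 Recombinant STAT6 (W123-T658) at 250 nM mixed with 2 nM 5-FAM phosphotyrosine peptide probe in HEPES pH 7.4 buffer with DTT, 1% DMSO final, added to serially diluted compounds. FP (mP) read after 45 min at room temperature; IC50 by nonlinear regression vs log concentration.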

[3] = STAT3 (G127-I722) 25 nM, read-out: STAT3 (FP assay IC50 class)
[4] = STAT6 (W123-T658) 250 nM, read-out: STAT6 (FP assay IC50 class)
[5] = STAT3 25 nM, read-out: STAT3 (FP assay IC50)
[6] = STAT6 250 nM, read-out: STAT6 (FP assay IC50)

| Structure (SMILES) | pIC50 [1, 3] | pIC50 [2, 4] | pIC50 [1, 5] | pIC50 [2, 6] |
| --- | --- | --- | --- | --- |
| O=C(N[C@H]1CCCC[C@H]2CC[C@@H](C(=O)N3CC(c4cc[nH]c(=O)c4)CC34CC4)N2C1=O)c1ccc2ccc(C(F)(F)P(=O)(O)O)cc2c1 (stereo partly drawn) [Compound 877, (difluoro(7-(((3S,6S,10aS)-5-oxo-3-(6-(2-oxo-1,2-dihydropyridin-4-yl)-4-azaspiro[2.4]heptane-4-carbonyl)decahydropyrrolo[1,2-a]azocin-6-yl)carbamoyl)naphthalen-2-yl)methyl) phosphonic acid] | 5.00 to 6.00 | ≥ 6.52 | – | – |
| O=C(N[C@H]1CCCC[C@H]2CC[C@@H](C(=O)N3CC(C4CCOCC4)C3)N2C1=O)c1cc2cc(C(F)(F)P(=O)(O)O)ccc2s1 [Compound 118A, (difluoro(2-(((3S,6S,10a S)-5-oxo-3-(3-(tetrahydro-2H-pyran-4-yl)azetidine-1-carbonyl)decahydropyrrolo-[1,2a]azocin-6-yl)carbamoyl)benzo[b]thiophen-5-yl)methyl) phosphonic acid] | – | – | 6.00 to 7.00 | 4.52 to 5.52 |
| O=C(N[C@H]1CCC[C@H]2CC[C@@H](C(=O)N3CC(c4cnccc4N4CCCC4=O)C3)N2C1=O)c1cc2cc(CP(=O)(O)O)ccc2s1 [Compound 850, ((2-(((3S,6S,9aS)-5-oxo-3-(3-(4-(2-oxopyrrolidin-1-yl)pyridin-3-yl)azetidine-1-carbonyl)octahydro-1H-pyrrolo[1,2-a]azepin-6-yl)carbamoyl)benzo [b]thiophen-5-yl)methyl) phosphonic acid] | 5.00 to 6.00 | 4.52 to 5.52 | – | – |
| O=C(N[C@H]1CCC[C@H]2CC[C@@H](C(=O)N3CC(C4COC4)C3)N2C1=O)c1cc2cc(C(F)(F)P(=O)(O)O)ccc2s1 [Compound 785, (difluoro(2-(((3S,6S,9aS)-3-(3-(oxetan-3-yl)azetidine-1-carbonyl)-5-oxooctahydro-1H-pyrrolo[1,2-a]azepin-6-yl)carbamoyl)benzo [b]thiophen-5-yl)methyl) phosphonic acid] | 6.00 to 7.00 | 4.52 to 5.52 | – | – |
| CC(=O)N1C[C@H](NC(=O)[C@@H]2CC[C@@H]3CCC[C@H](NC(=O)c4cc5cc(C(F)(F)P(=O)(O)O)ccc5s4)C(=O)N32)[C@@H](O)C1 [Compound 120, ((2-(((3S,6S,9aS)-3-(((3S,4S)-1-acetyl-4-hydroxypyrrolidin-3-yl)carbamoyl)-5-oxooctahydro-1H-pyrrolo[1,2-a]azepin-6-yl)carbamoyl)benzo[b]thiophen-5-yl)difluoromethyl) phosphonic acid] | – | – | 6.00 to 7.00 | 5.52 to 6.52 |
| O=C(N[C@H]1CCC[C@H]2CC[C@@H](C(=O)NCc3c[nH]c4ncccc34)N2C1=O)c1cc2cc(C(F)(F)P(=O)(O)O)ccc2s1 [Compound 31, ((2-(((3S,6S,9aS)-3-(((1H-pyrrolo[2,3-b]pyridin-3-yl)methyl)carbamoyl)-5-oxooctahydro-1H-pyrrolo[1,2-a]azepin-6-yl)carbamoyl)benzo [b]thiophen-5-yl)difluoromethyl) phosphonic acid] | – | – | 6.00 to 7.00 | 5.52 to 6.52 |
| C/C1=C/[C@H]2CC[C@@H](C(=O)N3CC(c4cnccc4C)C3)N2C(=O)[C@@H](NC(=O)c2cc3cc(C(F)(F)P(=O)(O)O)ccc3s2)CC1 [Compound 643, (difluoro(2-(((3S,6S,10aR,Z)-9-methyl-3-(3-(4-methylpyridin-3-yl)azetidine-1-carbonyl)-5-oxo-1,2,3,5,6,7,8,10a-octahydropyrrolo[1,2-a]azocin-6-yl)carbamoyl)benzo [b]thiophen-5-yl)methyl) phosphonic acid] | > 7.00 | 5.52 to 6.52 | – | – |
| CNC(=O)N1CC[C@@H](NC(=O)[C@@H]2CC[C@@H]3CCCC[C@H](NC(=O)c4cc5cc(C(F)P(=O)(O)O)ccc5s4)C(=O)N32)C1 (stereo partly drawn) [Compound 530, (fluoro(2-(((3S,6S,10aS)-3-(((R)-1-(methylcarbamoyl)pyrrolidin-3-yl)carbamoyl)-5-oxodecahydropyrrolo[1,2-a]azocin-6-yl)carbamoyl)benzo[b]thiophen-5-yl)methyl)phosphonic acid] | 6.00 to 7.00 | 4.52 to 5.52 | – | – |
| CC[C@@H]1CC[C@H](NC(=O)c2cc3cc(C(F)P(=O)(O)O)ccc3s2)C(=O)N2[C@H](CC[C@H]2C(=O)N2C[C@@H](C#N)[C@H](c3ccccc3)C2)C1 (single isomer, unassigned) [Compound 235] | 5.00 to 6.00 | ≥ 6.52 | – | – |
| Cc1ccncc1C1CN(C(=O)[C@@H]2CC[C@@H]3CC(C)C[C@H](NC(=O)c4cc5cc(CP(=O)(O)O)ccc5s4)C(=O)N32)C1 (stereo partly drawn) [Compound 500, ((2-(((3S,6S,9aR)-8-methyl-3-(3-(4-methylpyridin-3-yl)azetidine-1-carbonyl)-5-oxooctahydro-1H-pyrrolo[1,2-a]azepin-6-yl)carbamoyl)benzo[b]thiophen-5-yl)methyl)phosphonic acid] | 6.00 to 7.00 | 4.52 to 5.52 | – | – |

Further lines, results first:

| pIC50 [1, 3] | pIC50 [2, 4] | pIC50 [1, 5] | pIC50 [2, 6] | Structure (SMILES) |
| --- | --- | --- | --- | --- |
| > 7.00 | 4.52 to 5.52 | – | – | O=C(N[C@H]1CCCC[C@H]2CC[C@@H](C(=O)N3CC(OCC(F)F)(c4cccnc4)C3)N2C1=O)c1cc2cc(C(F)P(=O)(O)O)ccc2s1 (stereo partly drawn) [Compound 616, ((2-(((3S,6S,10aS)-3-(3-(2,2-difluoroethoxy)-3-(pyridin-3-yl)azetidine-1-carbonyl)-5-oxodecahydropyrrolo [1,2-a]azocin-6-yl)carbamoyl)benzo [b]thiophen-5-yl)fluoromethyl) phosphonic acid] |
| 6.00 to 7.00 | 4.52 to 5.52 | – | – | COCC(=O)NC1(c2ccccn2)CN(C(=O)[C@@H]2CC[C@@H]3CCCC[C@H](NC(=O)c4cc5cc(C(F)P(=O)(O)O)ccc5s4)C(=O)N32)C1 (stereo partly drawn) [Compound 567, (fluoro(2-(((3S,6S,10aS)-3-(3-(2-methoxyacetamido)-3-(pyridin-2-yl)azetidine-1-carbonyl)-5-oxodecahydropyrrolo[1,2-a]azocin-6-yl)carbamoyl)benzo[b]thiophen-5-yl)methyl)phosphonic acid] |
| > 7.00 | 4.52 to 5.52 | – | – | COc1ccncc1C1CN(C(=O)[C@@H]2CC[C@@H]3CCC[C@H](NC(=O)c4cc5cc([C@H](F)P(=O)(O)O)ccc5s4)C(=O)N32)C1 (single isomer, unassigned) [Compound 747] |
| 5.00 to 6.00 | ≥ 6.52 | – | – | N#C[C@@H]1[C@@H](c2cccnc2)CN(C(=O)[C@@H]2CC[C@@H]3CCCC[C@H](NC(=O)c4cc5cc([C@H](F)P(=O)(O)O)ccc5s4)C(=O)N32)C12CC2 (single isomer, unassigned) [Compound 839] |
| 6.00 to 7.00 | 4.52 to 5.52 | – | – | O=C(N[C@H]1CCCC[C@H]2CC[C@@H](C(=O)N3CCC(c4cccnc4)CC3)N2C1=O)c1cc2cc(C(F)P(=O)(O)O)ccc2s1 (stereo partly drawn) [Compound 564, (fluoro(2-(((3S,6S,10aS)-5-oxo-3-(4-(pyridin-3-yl)piperidine-1-carbonyl)decahydropyrrolo[1,2-a]azocin-6-yl)carbamoyl)benzo[b]thiophen-5-yl)methyl)phosphonic acid] |
| 5.00 to 6.00 | ≥ 6.52 | – | – | O=C(N[C@H]1CCCC[C@H]2CC[C@@H](C(=O)N3C[C@H](c4cccnc4)CC34CC4)N2C1=O)c1cc2cc([C@H](F)P(=O)(O)O)ccc2s1 (single isomer, unassigned) [Compound 911] |
